Measured values taken from patent publication US20100256145A1, “USE OF KCNQ POTASSIUM CHANNEL OPENERS FOR REDUCING SYMPTOMS OF OR TREATING DISORDERS OR CONDITIONS WHEREIN THE DOPAMINERGIC SYSTEM IS DISRUPTED” (H. LUNDBECK A/S, priority 2007, published 2010).
Marks after values point to notes of the source that are not given here.

How the values were obtained:
[1] = tested on: d-amphetamine induced hyperactivity in rats; test: Amphetamine-induced hyperactivity in the rat (amphetamine antagonism); format: in vivo; details: read-out: Amphetamine antagonism ED50 (mg/kg) ± std. dev.
Excerpt: Subjects. Male Wistar rats (Taconic, Denmark) weighing 170-240 g are used. […] Eight rats are used at each dose level and in the parallel control group receiving the vehicle to the test compound plus d-amphetamine and the group receiving vehicle injections only.

[2] = tested on: immobility in the mouse forced swim test; test: Mouse forced swim test; format: in vivo; details: mice, time immobile during last 3 min of 6 min swim, vehicle = 100
Procedure: Subjects. Male NMRI mice (Charles River) weighing 23-25 g are used. […] 8 mice are used pr experimental group.
Experimental procedure. The mice are placed in 2000 ml beaker containing 1200 ml of tempered water (25° C.) and left to swim for 6 min. The performance of the mice is videorecorded, digitalized and analysed by means of a digital analysis system (Bioobserve). The time spent immobile for the last 3 min. of the test session is quantified for each mouse.
Analyses. […] A post-hoc test (Student-Newman-Keuls) is employed when appropriate. P-levels <0.05 were considered significant.

baseline motility = test: Baseline motility in mice (vehicle-pretreated, vehicle-challenged); format: in vivo, mouse; details: s.c., Std. Dev. in brackets
Procedure: Subjects. Male NMRI mice (Charles River) weighing approx. 35 g are used. […] 12 mice are used pr experimental group.
Experimental procedure. All mice are pre-treated once daily for five days with either d-amphetamine sulphate (2.5 mg/kg s.c.) or saline (10 ml/kg). For the 17 days between the last day of pre-treatment and the test day, the animals are kept in their homecage receiving the care as described above. The experiment is performed under normal light conditions in an undisturbed room. The mice are treated with test substance or vehicle and placed individually in the test cages for 30 min. The mice are then challenged with D-amphetamine sulphate (1.25 mg/kg s.c.) or saline (5 ml/kg) and replaced in the test-cage and data acquisition is begun. 5×8 infrared light sources and photocells interspaced by 4 cm monitor the locomotor activity. The light beams cross the cage 1.8 cm above the bottom of the cage.
Administration of compounds.
Data analyses. […] Similarly an ED50 for inhibiting baseline motility is calculated by expressed the motility response in vehicle-pretreated, vehicle-challenged, drug-treated animals relative to the baseline motility response. A therapeutic index value is subsequently calculated by dividing the first ED50 by the second.

[3] = tested on: dopaminergic neurons in the ventral tegmental area; test: Spontaneous DA cell firing in the VTA of anaesthetised rats (extracellular single-cell recordings); details: mean ± SEM
Procedure: Subjects. Male Wistar rats (Harlan, The Netherlands) weighing 270-340 g are used. The animals are housed under a 12-hr light/dark cycle under controlled conditions for regular in-door temperature (21±2° C.) and humidity (55±5%) with food and tap water available ad libitum.
Administration of compound. […] These i.v. doses match the s.c. dose range of 0-10 mg/kg.
Statistical analysis. Drug effects are assessed by statistical comparison of the mean firing rate calculated from the 2-3 min period immediately before the first drug administration (baseline) to the mean firing rate calculated from at least 60 s at the maximal drug effect. Data are analysed statistically by a one-way analysis of variance (ANOVA) followed by Student-Newman-Keuls post hoc test. A p-value less than 0.05 is considered significant.

[4] = tested on: extracellular DA levels in the nucleus accumbens; test: Microdialysis: amphetamine-evoked DA levels in the nucleus accumbens of freely moving rats; format: in vivo, rat; details: for Normalised DA level in the nucleus accumbens: compound 5 mg/kg s.c., D-amphetamine 0.5 mg/kg s.c. 30 min later; for Effect on the basal extracellular DA level in the nucleus accumbens: without amphetamine, data not shown
Procedure: Subjects. Male Sprague-Dawley rats (Charles River), initially weighing 275-300 g, are used.
Surgery. Animals are anaesthetized with hypnorm/dormicum (2 ml/kg s.c.) and intracerebral guide cannulas (CMA/12) are stereotaxically implanted, positioning the dialysis probe tip in the nucleus accumbens (co-ordinates: 1.7 mm anterior to bregma, −1.2 mm lateral to bregma, 8.0 mm ventral to the dura). Anchor screws and acrylic cement is applied for fixation of the guide cannula. The body temperature of the animals is maintained at 37° C. by means of a rectal probe and a heating plate. The rats are allowed to recover from surgery for 2 days, housed singly in cages.
Experimental procedure. On the day of the experiment, a microdialysis probe (CMA/12, 0.5 mm diameter, 2 mm length) is inserted through the guide cannula of the conscious animal. The probes are connected to a microinjection pump via a dual channel swivel which allowed the animals unrestricted movements. Perfusion of the microdialysis probe with filtered Ringer solution (145 mM NaCl, 3 mM KCl, 1 mM MgCl2, 1.2 mM CaCl2) is maintained for the duration of the experiment at a constant flow rate of 1 μL/min. After 180 min of stabilisation, the experiments are initiated. Dialysates are collected every 20 min. After the experiments the rats are sacrificed by decapitation, their brains removed, frozen and sliced for probe placement verification.
Administration of compounds. […] Thirty minutes later, D-amphetamine sulphate (0.5 mg/kg s.c.) is administered.
Analysis of dialysate. The concentration of DA in the dialysates is assessed by means of HPLC with electrochemical detection. The dialysate constituents are separated by reverse phase liquid chromatography (ODS 150×3 mm, […]). Mobile phase consists of 90 mM NaH2PO4, 50 mM sodium citrate, 367 mg/l sodium 1-octanesulfonic acid, 50 μM EDTA and 8% acetonitrile (pH 4.0) at a flow rate of 0.5 ml/min. Electrochemical detection of DA is accomplished using a coulometric detector; potential set at E1=−75 mV and E2=300 mV (guard cell at 350 mV) (Coulochem II, ESA). The dialysate levels of DA in the three dialyse samples preceding the administration of compound are averaged and used as baseline level of DA (100%)
Statistical analysis. The dialysate levels of DA in the three dialyse samples preceding the administration of compound are averaged and used as baseline level of DA (100%). Data are analysed using repeated measure analyses of variance followed by post hoc tests (Tukey test), when appropriate. *P<0.05 were considered significant.

[5] = tested on: conditioned avoidance response; test: Conditioned avoidance response in rats; format: in vivo, rat; details: Rattus norvegicus, sc, rats, read-out: % inhibition of avoidance (Std. dev.) Relative to baseline; for inhibition at 2.5 mg/kg: 2.5 mg/kg s.c. 30 min before the test; for inhibition at 5 mg/kg: 5 mg/kg s.c. 30 min before the test
Procedure: Subjects. Male Wistar rats (Taconic, Denmark) weighing 150 g at the beginning of the study are used. The rats are housed in pairs and maintained on a 12 h light/dark cycle (lights on 06:00). The animals are fed once daily (approx. 6 pellets/rat) in order to keep the rats at 80% of their free-feeding weight. Water is available ad libitum. Temperature (21±1° C.) and relative humidity (55±5%) are automatically controlled.
Experimental procedure. Conditioned avoidance testing is conducted using four automated shuttle-boxes (ENV-010M, MED-Associates) each placed in a sound-attenuated chamber. Each box is divided into two compartments by a partition with an opening. The position of the animal and crossings from one compartment to the other are detected by two photocells placed on either side of the dividing wall. Upon presentation of the conditioned stimuli (CS), tone and light, the animals have 10s to cross to the other compartment of the shuttle-box in order to turn the CS off (end the trial) and avoid the appearance of the unconditioned stimulus (UCS). If the rat remains in the same compartment for more than 10s, the UCS is presented as 0.5 mA scrambled foot-shocks until escape is performed or 10s in maximal duration. The following behavioural variables are evaluated: avoidance (response to CS within 10s); escape (reponse to CS+UCS); escape failures (failure to respond); intertrial crosses and locomotor activity. The rats are habituated to the shuttle-box 3 min before each test session. During training each test session consists of 30 trials with intertrial intervals varying randomly between 20s and 30s. Training is carried out until the rats display an avoidance of 80% or more, on 3 consecutive days. A test is preceded by a pre-test the day before giving rise to a baseline value for each animal, thus the animals serve as their own control. Seven to eight rats are used at each dose level. A parallel control group receiving the vehicle of the test compound is also included.
Administration of compound. […] All compounds are dissolved in a vehicle of 10% 2-hydroxy-propyl-beta-cyclodextrin (isotonic with glucose, pH 5-7).
Statistical analyses. The effects of compounds on avoidance and escape failure behaviours are statistically evaluated by means of two-way repeated measures ANOVA followed by post hoc comparisons (Student-Newman-Keuls Method) when appropriate. P-levels <0.05 are considered statistically significant.

[6] = 2.5 mg/kg s.c. 30 min before test
[7] = 5.0 mg/kg s.c. 30 min before test

| SMILES | Immobility in % (±S.D.) ([2]; 1.3 mg/kg) | Spontaneous DA cell firing rate in the VTA ([3]; cumulated dose 0.03 mg/kg i.v.) | Spontaneous DA cell firing rate in the VTA ([3]; cumulated dose 0.1 mg/kg i.v.) | Normalised DA level in the nucleus accumbens ([4]; Time 0 min (baseline sample)) | Normalised DA level in the nucleus accumbens ([4]; Time 20 min) | Normalised DA level in the nucleus accumbens ([4]; Time 40 min) | Normalised DA level in the nucleus accumbens ([4]; Time 60 min) | Normalised DA level in the nucleus accumbens ([4]; Time 80 min) | Normalised DA level in the nucleus accumbens ([4]; Time 100 min) | Normalised DA level in the nucleus accumbens ([4]; Time 120 min) | Normalised DA level in the nucleus accumbens ([4]; Time 140 min) | Normalised DA level in the nucleus accumbens ([4]; Time −20 min (baseline sample)) | Normalised DA level in the nucleus accumbens ([4]; Time −40 min (baseline sample)) | Effect on the basal extracellular DA level in the nucleus accumbens [4] | Immobility in % (±S.D.) [2, 6] | Immobility in % (±S.D.) [2, 7] | inhibition at 2.5 mg/kg [5] | inhibition at 5 mg/kg [5] | other results |
| --- | --- | --- | --- | --- | --- | --- | --- | --- | --- | --- | --- | --- | --- | --- | --- | --- | --- | --- | --- |
| Cc1cc2c(s1)Nc1ccccc1N=C2N1CCN(C)CC1 [Olanzapine, reference compound] | 95 (11) % | – | – | – | – | – | – | – | – | – | – | – | – | – | – | – | – | – | ED50 [1]: 0.21 mg/kg; Immobility in % (±S.D.) ([2]; 0.31 mg/kg): 96 (14) % |
| CCOC(=O)Nc1ccc(NCc2c(C)cc(C)cc2C)cc1N [[2-Amino-4-(2,4,6-trimethyl-benzylamino)-phenyl]-carbamic acid ethyl ester] | – | – | – | – | – | – | – | – | – | – | – | – | – | – | – | – | – | – | Inhibition of baseline motility, ED50 (baseline motility): 4.3 mg/kg |
| Cc1cc(N2CCOCC2)cc(C)c1NC(=O)CC1CCCC1 | 97.5 (6.3) % | 95.1 ± 1.9 (4) percentage of baseline firing rate | 88.2 ± 2.8 (5) percentage of baseline firing rate | 99 ± 4 % of baseline | 125 ± 9 % of baseline | 264 ± 39 % of baseline | 265 ± 17* % of baseline | 231 ± 22 % of baseline | 167 ± 25 % of baseline | 109 ± 11 % of baseline | 93 ± 15 % of baseline | 106 ± 5 % of baseline | 95 ± 6 % of baseline | None of the latter three compounds significantly affects the basal extracellular DA level | 97 (6.7) % | 81.0 (18)* % | 5% | 65% | Spontaneous DA cell firing rate in the VTA ([3]; cumulated dose 0.3 mg/kg i.v.): 74.6 ± 3.6 (4) percentage of baseline firing rate; Spontaneous DA cell firing rate in the VTA ([3]; cumulated dose 0.6 mg/kg i.v.): 64.1 ± 7.1 (2) percentage of baseline firing rate; Spontaneous DA cell firing rate in the VTA ([3]; cumulated dose 0.9 mg/kg i.v.): 55.8 ± 6.5 (2) percentage of baseline firing rate |
| Cc1cc(N2CCOCC2)cc(C)c1NC(=O)CC(C)(C)C | 102 (4.6) % | 89.8 ± 4.5 (5) percentage of baseline firing rate | 81.0 ± 4.0 (5) percentage of baseline firing rate | 91 ± 4 % of baseline | 112 ± 12 % of baseline | 227 ± 46 % of baseline | 262 ± 53* % of baseline | 195 ± 38* % of baseline | 172 ± 24 % of baseline | 166 ± 32 % of baseline | 129 ± 35 % of baseline | 100 ± 3 % of baseline | 108 ± 5 % of baseline | None of the latter three compounds significantly affects the basal extracellular DA level | 96.7 (7.5) % | 82.3 (20)* % | 1% | 71% | Spontaneous DA cell firing rate in the VTA ([3]; cumulated dose 0.25 mg/kg i.v.): 74.1 ± 6.3 (4) percentage of baseline firing rate; Spontaneous DA cell firing rate in the VTA ([3]; cumulated dose 0.5 mg/kg i.v.): 68.1 ± 6.0 (4) percentage of baseline firing rate; Spontaneous DA cell firing rate in the VTA ([3]; cumulated dose 1.0 mg/kg i.v.): 57.1 ± 7.9 (3) percentage of baseline firing rate |
